This is an account of results in PubChem BioAssay (NCI).

Several values for one entry are separate records, joined by “and”; a condition that tells them apart may be missing. Identical values can stand only once.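 Five compound concentrations were applied to cells in 96-well plates for 48 hours; endpoints were derived by simple linear interpolation of the resulting dose-response curve. Here, GI50 denotes the concentration required for 50% inhibition of growth. TGI: concentration producing complete growth inhibition.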

For the assay, the system named is MDA-MB-468 breast. The assay can be described thus: NCI anticancer screen, dose series, 48 h.
`COc1ccc(C2C3=C(COC3=O)Oc3cc4c(cc32)OCO4)cc1OC` (centres undefined): the GI50 was 4700 nM and the TGI is more than 100 µM.
In the same order, the values of `COc1ccc(C2=NNC(c3sc(Cl)nc3Cl)C2)cc1` (centres undefined) are 2600 nM and 8.19 µM.
For `CCOC(=O)c1sc(NC(=O)COc2ccc(/C=C3\CCc4cc(OC)ccc4C3=O)cc2)nc1C` the same measures were 1730 nM and 7.2 µM.
For `CCN(CC)c1ccc(/C=N/N=C(N)N)cc1` the same measures were 1880 nM and 6.61 µM.
As to `Cn1cc(-c2csc(-c3ccc(Cl)cc3)n2)c2cccnc21`, the GI50 is 10500 nM and the TGI came to 31.1 µM.
For `CN(C)CCN=c1nc2c(c(N)n1-c1ccccc1)c(=S)n(-c1ccccc1)c(=S)n2-c1ccccc1` the same measures were 1360 nM and 3.02 µM.
As for `COc1ccc2c(c1)[n+](=O)c(/C=C/C(=O)c1cc(OC)c(OC)c(OC)c1)c(C)n2[O-]`, the GI50 was 3160 nM and the TGI worked out at 18 µM.
In the same order, the values of `COc1cc(C2CC(c3ccc(Cl)cc3)=NN2C(C)=O)ccc1Oc1ccnc2cc(Cl)ccc12` (centres undefined) are 4220 nM and more than 100 µM.
On to `CCCCS(=O)(=O)c1cc(Nc2ccc(O)c3c2C(=O)c2ccccc2C3=O)ccc1C`, for which the GI50 was 88300 nM and the TGI was more than 100 µM.
In the same order, the values of `CC(C)(O)c1cc(Nc2cc(Oc3cn(C4CC4)nc3C3CCOCC3)ccn2)ccn1` are 30600 nM and more than 100 µM.
In the same order, the values of `CC(=O)c1nc(-c2ccc(C[C@@H](CNC(=O)CN(C)C)NC(=O)c3ccc(OC(C)C)c(Cl)c3)cc2)cn1C` are 39.9 nM and 14.3 µM.
In the same order, the values of `O=C(NCc1cn(Cc2cccc(Oc3ccccc3)c2)nn1)c1cccnc1NCc1ccc(Cl)cc1` are 3440 nM and more than 100 µM.
Consider `Cc1cc(C)c(-c2c(O)c(Br)c(-c3c(C)cc(C)c(Br)c3C)c(O)c2Br)c(C)c1Br`, for which the GI50 was 2830 nM and the TGI came out at 11.1 µM.
In the same order, the values of `C/C(=N\NC(=S)N1CCCC1)c1ccccn1` are less than 10 nM and 0.0801 µM.
In the same order, the values of `COc1ccc(N=c2nc3sc4cc(Cl)ccc4n3c(N)c2C#N)cc1` are 1110 nM and 19.7 µM.
As for `O=C(O)C(Cc1ccccc1)N1C(=O)/C(=C/C(Cl)=C/c2ccc([N+](=O)[O-])cc2)SC1=S` (centres undefined), the GI50 was 1390 nM and the TGI was determined as 3.28 µM.
For `C=C1C(=O)O[C@@H]2C[C@@H](C)[C@@H]3C=CC(=O)[C@@]3(C)[C@@H](OC(=O)CCCC(=O)O[C@H]3[C@@H]4C(=C)C(=O)O[C@@H]4C[C@@H](C)[C@@H]4C=CC(=O)[C@]43C)[C@H]12` the same measures were 14.3 nM and 0.0328 µM.
Regarding `CCC(=C(c1ccc(OCCN2CCCCCC2)cc1)c1ccc(OCCN2CCCCCC2)cc1)c1ccc(Cl)cc1`, the GI50 is 656 nM and the TGI amounted to 1.49 µM.
On to `N#C/C(=C/C=C/c1cccc(Cl)c1)S(=O)c1ccccc1` (centres undefined), for which the GI50 was 258 nM and the TGI was 0.758 µM.
In the same order, the values of `Fc1ccc(-c2ncn(C3CCNCC3)c2-c2ccnc(Oc3ccc(Cl)cc3)n2)cc1` are 1780 nM and 5.36 µM.
In the same order, the values of `COc1cccc(C2C(C#N)=C(N)Oc3cc(OCCCCCC[P+](c4ccccc4)(c4ccccc4)c4ccccc4)ccc32)c1` (centres undefined) are 222 nM and 0.611 µM.
For `CN(CCOc1ccc(NS(C)(=O)=O)cc1)CCc1ccc(NS(C)(=O)=O)cc1` the same measures were more than 100000 nM and more than 100 µM.
In the case of `CN(Cc1cnc2nc(N)nc(N)c2n1)c1c(Cl)cc(C(=O)NC(CCC(=O)O)C(=O)O)cc1Cl` (centres undefined), the GI50 is less than 21.1 nM.
With `CCS(=O)(=O)c1cccc(-c2cc(C(=O)NC3CCN(C)CC3)c(C)c3[nH]c4ncc(C)cc4c23)c1`, the GI50 is 192 nM and 86.9 nM; the TGI is 2.69 µM and 0.47 µM.
For `COc1ccc(/C=C(\C#N)c2cc(OC)c(OC)c(OC)c2)cc1`, the GI50 was 22.2 nM and the TGI worked out at 2.52 µM.
